Data: ChEMBL document CHEMBL1649174, “Human immunodeficiency virus type 1 isolates with the reverse transcriptase (RT) mutation Q145M retain nucleoside and nonnucleoside RT inhibitor susceptibility” (2009)

Key:
Format in all cases: functional
[1] = tested on: Human immunodeficiency virus 1; assay: Antiviral activity against Human immunodeficiency virus 1 clone pNL4-3-Q145M harboring K102Q, Q145M, S162C, K277R, I293V mutation in reverse transcriptase by phenosense assay relative to wild type
[2] = tested on: Human immunodeficiency virus 1; assay: Antiviral activity against Human immunodeficiency virus 1 clone 38086 harboring K49R, V60I, I135V, Q145M, Q174H, G196E, Q207E, R211K, V245K mutation in reverse transcriptase by phenosense assay relative to wild type
[3] = tested on: Human immunodeficiency virus 1; assay: Antiviral activity against Human immunodeficiency virus 1 clone Q9016 harboring K122E, Q145M, I202V, F214L mutation in reverse transcriptase by phenosense assay relative to wild type
[4] = tested on: Human immunodeficiency virus 1; assay: Antiviral activity against Human immunodeficiency virus 1 clone 14682 harboring 122E, 135V, Q145V, 200A mutation in reverse transcriptase by phenosense assay relative to wild type

SMILES	fold change (FC) [1]	fold change (FC) [2]	fold change (FC) [3]	fold change (FC) [4]
Nc1nc(NC2CC2)c2ncn([C@H]3C=C[C@@H](CO)C3)c2n1 [ABACAVIR]	1.1	0.9	1.2	1.1
CC(C)Nc1cccnc1N1CCN(C(=O)c2cc3cc(NS(C)(=O)=O)ccc3[nH]2)CC1 [DELAVIRDINE]	0.6	0.4	0.7	0.9
O=c1[nH]cnc2c1ncn2[C@H]1CC[C@@H](CO)O1 [DIDANOSINE]	1.1	1.5	0.9	1
O=C1Nc2ccc(Cl)cc2[C@@](C#CC2CC2)(C(F)(F)F)O1 [EFAVIRENZ]	0.9	1	1.2	1.3
Nc1nc(=O)n([C@@H]2CS[C@H](CO)O2)cc1F [EMTRICITABINE]	0.9	1.2	1.1	0.5
Cc1ccnc2c1NC(=O)c1cccnc1N2C1CC1 [NEVIRAPINE]	1.3	1.1	0.7	0.5
Cc1cn([C@H]2C=C[C@@H](CO)O2)c(=O)[nH]c1=O [STAVUDINE]	0.9	1.1	1.1	0.9
C[C@H](Cn1cnc2c(N)ncnc21)OCP(=O)(O)O [TENOFOVIR ANHYDROUS]	0.9	0.9	1.5	0.9
Cc1cn([C@H]2C[C@H](N=[N+]=[N-])[C@@H](CO)O2)c(=O)[nH]c1=O [ZIDOVUDINE]	0.7	0.9	1.1	0.8
